According to patent publication US20250270190A1, “KIT INHIBITORS” (BLUEPRINT MEDICINES CORPORATION, priority 2022, published 2025):

What follows are compounds tested against T1, c-kit autophosphorylation (Phospho c-Kit Tyr721) in HMC 1.1 (exon 11/13) cells, V654A (Homo sapiens, UniProt P10721, V560G/V654A) (assay: pKIT Meso Scale Discovery (MSD) assay, inhibition of autophosphorylation of KIT, HMC1.1_V654A). Settings: Table 1, cell line not named for Table 1, b1056 names pKIT HMC1.1_V654A, read-out: Code (IC50 for inhibition of autophosphorylation of KIT, pKIT MSD assay).
T1 construct: endogenous in cells; host or cells: HMC 1.1 (exon 11/13) cells
Assay type: cell-based
Procedure, shortened: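 HMC1.1 cells were serum-starved for 4 h in serum-free, iron-free, phenol red-free IMDM, then treated with compound in dose-response for 90 min at 37 °C. Staurosporine and DMSO served as controls. Lysates were analysed by MSD electrochemiluminescence immunoassay for phospho-c-Kit Tyr721, and % inhibition of autophosphorylation was derived.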

T1 sequence (P10721 26-976 V560G/V654A): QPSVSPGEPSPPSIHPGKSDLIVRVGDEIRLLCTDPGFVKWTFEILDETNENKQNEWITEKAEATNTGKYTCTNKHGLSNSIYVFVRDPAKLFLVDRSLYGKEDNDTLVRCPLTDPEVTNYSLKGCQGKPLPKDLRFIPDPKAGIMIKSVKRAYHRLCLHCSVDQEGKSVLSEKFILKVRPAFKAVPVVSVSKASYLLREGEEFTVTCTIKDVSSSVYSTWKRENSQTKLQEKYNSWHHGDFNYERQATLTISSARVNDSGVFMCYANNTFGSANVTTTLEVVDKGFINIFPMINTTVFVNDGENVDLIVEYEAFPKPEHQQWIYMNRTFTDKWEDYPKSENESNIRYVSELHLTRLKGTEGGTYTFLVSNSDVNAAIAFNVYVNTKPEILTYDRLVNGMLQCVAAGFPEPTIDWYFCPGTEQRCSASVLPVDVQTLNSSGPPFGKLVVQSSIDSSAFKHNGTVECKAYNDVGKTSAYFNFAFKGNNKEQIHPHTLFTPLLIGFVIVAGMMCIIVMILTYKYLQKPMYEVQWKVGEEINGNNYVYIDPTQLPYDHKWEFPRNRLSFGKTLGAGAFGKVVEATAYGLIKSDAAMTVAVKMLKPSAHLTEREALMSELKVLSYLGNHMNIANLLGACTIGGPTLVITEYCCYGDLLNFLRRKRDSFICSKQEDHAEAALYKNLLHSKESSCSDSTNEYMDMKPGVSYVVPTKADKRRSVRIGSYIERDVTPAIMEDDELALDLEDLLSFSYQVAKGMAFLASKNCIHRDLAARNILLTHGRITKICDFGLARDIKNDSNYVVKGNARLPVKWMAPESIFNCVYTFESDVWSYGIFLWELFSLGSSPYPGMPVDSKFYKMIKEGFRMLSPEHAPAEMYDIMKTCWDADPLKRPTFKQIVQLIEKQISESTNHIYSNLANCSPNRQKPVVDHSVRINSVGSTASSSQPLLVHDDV

| SMILES | IC50 |
| --- | --- |
| COc1cc(Nc2cc(N)nc(C(F)F)n2)ncc1-c1cnn(C2CN(C)C2)c1 [Compound 103, 2-(difluoromethyl)-N4-(4-methoxy-5-(1-(1-methylazetidin-3-yl)-1H-pyrazol-4-yl)pyridin-2-yl)pyrimidine-4,6-diamine] | < 10 nM |
| Cn1cc(-c2cnc(Nc3cc(N)nc(C(F)F)n3)cc2OCC2COC2)cn1 [Compound 104, 2-(difluoromethyl)-N4-(5-(1-methyl-1H-pyrazol-4-yl)-4-(oxetan-3-ylmethoxy)pyridin-2-yl)pyrimidine-4,6-diamine] | < 10 nM |
| Cn1cc(-c2cnc(Nc3cc(N)nc(C(F)F)n3)cc2OCC2CCO2)cn1 (stereo not drawn) [Compound 105, 2-(difluoromethyl)-N4-(5-(1-methyl-1H-pyrazol-4-yl)-4-(oxetan-2-ylmethoxy)pyridin-2-yl)pyrimidine-4,6-diamine] | 10 to 40 nM |
| Cn1cc(-c2cnc(Nc3cc(N)nc(C(F)F)n3)cc2OC2CCOC2)cn1 (stereo not drawn) [Compound 106, 2-(difluoromethyl)-N4-(5-(1-methyl-1H-pyrazol-4-yl)-4-((tetrahydrofuran-3-yl)oxy)pyridin-2-yl)pyrimidine-4,6-diamine] | < 10 nM |
| Cn1cc(-c2cnc(Nc3cc(N)nc(C(F)F)n3)cc2O[C@H]2C[C@@H](O)C2)cn1 [Compound 107, (1s,3s)-3-((2-((6-amino-2-(difluoromethyl)pyrimidin-4-yl)amino)-5-(1-methyl-1H-pyrazol-4-yl)pyridin-4-yl)oxy)cyclobutan-1-ol] | 10 to 40 nM |
| Nc1cc(Nc2cc(OC3CC3)c(-c3cnn(CCO)c3)cn2)nc(C(F)F)n1 [Compound 108, 2-(4-(6-((6-amino-2-(difluoromethyl)pyrimidin-4-yl)amino)-4-cyclopropoxypyridin-3-yl)-1H-pyrazol-1-yl)ethan-1-ol] | < 10 nM |
| COc1cc(Nc2cc(N)nc(C(F)F)n2)ncc1-c1cnn(CC2CCO2)c1 (stereo not drawn) [Compound 111, 2-(difluoromethyl)-N4-(4-methoxy-5-(1-(oxetan-2-ylmethyl)-1H-pyrazol-4-yl)pyridin-2-yl)pyrimidine-4,6-diamine] | < 10 nM |
| COc1cc(Nc2cc(N)nc(C(F)F)n2)ncc1-c1cnn(C2CC(O)C2)c1 (stereo not drawn) [Compound 112, 3-(4-(6-((6-amino-2-(difluoromethyl)pyrimidin-4-yl)amino)-4-methoxypyridin-3-yl)-1H-pyrazol-1-yl)cyclobutan-1-ol] | 10 to 40 nM |
| CCNc1cc(Nc2cc(N)nc(C(F)F)n2)ncc1C(=O)NCc1cocn1 [Compound 113, 6-((6-amino-2-(difluoromethyl)pyrimidin-4-yl)amino)-4-(ethylamino)-N-(oxazol-4-ylmethyl)nicotinamide] | < 10 nM |
| CCNc1cc(Nc2cc(N)nc(C(F)F)n2)ncc1C(=O)NCc1ncco1 [Compound 114, 6-((6-amino-2-(difluoromethyl)pyrimidin-4-yl)amino)-4-(ethylamino)-N-(oxazol-2-ylmethyl)nicotinamide] | 10 to 40 nM |
| COc1cc(Nc2cc(N)nc(C(F)F)n2)ncc1-c1cnn(CCN(C)C)c1 [Compound 115, 2-(difluoromethyl)-N4-(5-(1-(2-(dimethylamino)ethyl)-1H-pyrazol-4-yl)-4-methoxypyridin-2-yl)pyrimidine-4,6-diamine] | 10 to 40 nM |
| CCOc1cc(Nc2cc(N)nc(C(F)F)n2)ncc1-c1cnn(CCNC)c1 [Compound 119, 2-(difluoromethyl)-N4-(4-ethoxy-5-(1-(2-(methylamino)ethyl)-1H-pyrazol-4-yl)pyridin-2-yl)pyrimidine-4,6-diamine] | < 10 nM |
| CNc1cc(Nc2cc(N)nc(C(F)F)n2)ncc1C(=O)NC12CC(CO)(C1)C2 [Compound 121, 6-((6-amino-2-(difluoromethyl)pyrimidin-4-yl)amino)-N-(3-(hydroxymethyl)bicyclo[1.1.1]pentan-1-yl)-4-(methylamino)nicotinamide] | 10 to 40 nM |
| COc1cc(Nc2cc(N)nc(C(F)F)n2)ncc1-c1cnn(C(C)(C)CO)c1 [Compound 122, 2-(4-(6-((6-amino-2-(difluoromethyl)pyrimidin-4-yl)amino)-4-methoxypyridin-3-yl)-1H-pyrazol-1-yl)-2-methylpropan-1-ol] | < 10 nM |
| Nc1cc(Nc2cc(NC3CC3)c(C(=O)N[C@H]3C[C@@H](O)C3)cn2)nc(C(F)F)n1 [Compound 123, 6-((6-amino-2-(difluoromethyl)pyrimidin-4-yl)amino)-4-(cyclopropylamino)-N-((1s,3s)-3-hydroxycyclobutyl)nicotinamide] | 10 to 40 nM |
| Nc1cc(Nc2cc(OC(F)F)c(-c3cnn(C4CC4)c3)cn2)nc(C(F)F)n1 [Compound 127, N4-(5-(1-cyclopropyl-1H-pyrazol-4-yl)-4-(difluoromethoxy)pyridin-2-yl)-2-(difluoromethyl)pyrimidine-4,6-diamine] | < 10 nM |
| CC(Oc1cc(Nc2cc(N)nc(C(F)F)n2)ncc1-c1cnn(C)c1)C(F)F (stereo not drawn) [Compound 128, 2-(difluoromethyl)-N4-(4-((1,1-difluoropropan-2-yl)oxy)-5-(1-methyl-1H-pyrazol-4-yl)pyridin-2-yl)pyrimidine-4,6-diamine] | < 10 nM |

| SMILES | IC50 |
| --- | --- |
| CC(C)Oc1cc(Nc2cc(N)nc([C@H](C)F)n2)ncc1-c1cnn(C2COC2)c1 [Compound 129, (S)-2-(1-fluoroethyl)-N4-(4-isopropoxy-5-(1-(oxetan-3-yl)-1H-pyrazol-4-yl)pyridin-2-yl)pyrimidine-4,6-diamine] | < 10 nM |
| Nc1cc(Nc2cc(OC3CC3)c(-c3cnn(C4CNC4)c3)cn2)nc(C(F)F)n1 [Compound 130, N4-(5-(1-(azetidin-3-yl)-1H-pyrazol-4-yl)-4-cyclopropoxypyridin-2-yl)-2-(difluoromethyl)pyrimidine-4,6-diamine] | 10 to 40 nM |
| CCNc1cc(Nc2cc(N)nc(C(F)F)n2)ncc1C(=O)NCc1ccccn1 [Compound 131, 6-((6-amino-2-(difluoromethyl)pyrimidin-4-yl)amino)-4-(ethylamino)-N-(pyridin-2-ylmethyl)nicotinamide] | < 10 nM |
| Cn1cc(-c2cnc(Nc3cc(N)nc(C(F)F)n3)cc2OCC(F)(F)F)cn1 [Compound 132, 2-(difluoromethyl)-N4-(5-(1-methyl-1H-pyrazol-4-yl)-4-(2,2,2-trifluoroethoxy)pyridin-2-yl)pyrimidine-4,6-diamine] | < 10 nM |
| Nc1cc(Nc2cc(OC3CC3)c(-c3cnn(C4COC4)c3)cn2)nc(C(F)F)n1 [Compound 133, N4-(4-cyclopropoxy-5-(1-(oxetan-3-yl)-1H-pyrazol-4-yl)pyridin-2-yl)-2-(difluoromethyl)pyrimidine-4,6-diamine] | < 10 nM |
| Nc1cc(Nc2cc(NC3CC3)c(C(=O)NCc3cocn3)cn2)nc(C(F)F)n1 [Compound 134, 6-((6-amino-2-(difluoromethyl)pyrimidin-4-yl)amino)-4-(cyclopropylamino)-N-(oxazol-4-ylmethyl)nicotinamide] | < 10 nM |
| Nc1cc(Nc2cc(NC3CC3)c(C(=O)NCc3ncco3)cn2)nc(C(F)F)n1 [Compound 135, 6-((6-amino-2-(difluoromethyl)pyrimidin-4-yl)amino)-4-(cyclopropylamino)-N-(oxazol-2-ylmethyl)nicotinamide] | < 10 nM |
| CNCCn1cc(-c2cnc(Nc3cc(N)nc(C(F)F)n3)cc2OC2CC2)cn1 [Compound 136, N4-(4-cyclopropoxy-5-(1-(2-(methylamino)ethyl)-1H-pyrazol-4-yl)pyridin-2-yl)-2-(difluoromethyl)pyrimidine-4,6-diamine] | < 10 nM |
| COc1cc(Nc2cc(N)nc(C(F)F)n2)ncc1-c1cnn(CCN2CCC2)c1 [Compound 137, N4-(5-(1-(2-(azetidin-1-yl)ethyl)-1H-pyrazol-4-yl)-4-methoxypyridin-2-yl)-2-(difluoromethyl)pyrimidine-4,6-diamine] | 10 to 40 nM |
| COc1cc(Nc2cc(N)nc(C(F)F)n2)ncc1-c1cnn(C2CCN(C)C2)c1 (stereo not drawn) [Compound 140, 2-(difluoromethyl)-N4-(4-methoxy-5-(1-(1-methylpyrrolidin-3-yl)-1H-pyrazol-4-yl)pyridin-2-yl)pyrimidine-4,6-diamine] | < 10 nM |
| CCOc1cc(Nc2cc(N)nc(C(F)F)n2)ncc1-c1cnn(C2CN(C)C2)c1 [Compound 141, 2-(difluoromethyl)-N4-(4-ethoxy-5-(1-(1-methylazetidin-3-yl)-1H-pyrazol-4-yl)pyridin-2-yl)pyrimidine-4,6-diamine] | < 10 nM |
| Cn1cc(-c2cnc(Nc3cc(N)nc(C(F)F)n3)cc2OC2CCCOC2)cn1 (stereo not drawn) [Compound 142, 2-(difluoromethyl)-N4-(5-(1-methyl-1H-pyrazol-4-yl)-4-((tetrahydro-2H-pyran-3-yl)oxy)pyridin-2-yl)pyrimidine-4,6-diamine] | < 10 nM |
| Cn1cc(-c2cnc(Nc3cc(N)nc(C(F)F)n3)cc2OCC2CCCO2)cn1 (stereo not drawn) [Compound 143, 2-(difluoromethyl)-N4-(5-(1-methyl-1H-pyrazol-4-yl)-4-((tetrahydrofuran-2-yl)methoxy)pyridin-2-yl)pyrimidine-4,6-diamine] | < 10 nM |
| Cn1cc(-c2cnc(Nc3cc(N)nc(C(F)F)n3)cc2OC[C@H]2C[C@H](O)C2)cn1 [Compound 144, (1r,3r)-3-(((2-((6-amino-2-(difluoromethyl)pyrimidin-4-yl)amino)-5-(1-methyl-1H-pyrazol-4-yl)pyridin-4-yl)oxy)methyl)cyclobutan-1-ol] | 10 to 40 nM |
| Cn1cc(-c2cnc(Nc3cc(N)nc(C(F)F)n3)cc2OCC2CC(O)C2)cn1 (stereo not drawn) [Compound 145, 3-(((2-((6-amino-2-(difluoromethyl)pyrimidin-4-yl)amino)-5-(1-methyl-1H-pyrazol-4-yl)pyridin-4-yl)oxy)methyl)cyclobutan-1-ol] | 10 to 40 nM |
| COCCn1cc(-c2cnc(Nc3cc(N)nc(C(F)F)n3)cc2OC2CC2)cn1 [Compound 146, N4-(4-cyclopropoxy-5-(1-(2-methoxyethyl)-1H-pyrazol-4-yl)pyridin-2-yl)-2-(difluoromethyl)pyrimidine-4,6-diamine] | < 10 nM |
